We go through 1 molecule from patent US10624968B2, “Compounds for treating cancer” (Bicycle Therapeutics Limited, priority 2017, dated 2020).

Data set [1] relates to NCI-H292. Particulars: historical, read-out: IC50* (Historical IC50 observed for paclitaxel); cited from earlier work.
Data set [2] deals with PC-3. Particulars: historical, read-out: IC50* (Historical IC50 observed for paclitaxel); cited from earlier work.
In data set [3] the test system is EBC-1. To be noted: historical, read-out: IC50* (Historical IC50 observed for paclitaxel); cited from earlier work.
The test system of data set [4] is HT1080. Particulars: historical, read-out: IC50* (Historical IC50 observed for paclitaxel); cited from earlier work.
The test system of data set [5] is NCI-H1975. To be noted: historical, read-out: IC50* (Historical IC50 observed for paclitaxel); cited from earlier work.
For data set [6], the system named is MOLP-8. To be noted: historical, read-out: IC50* (Historical IC50 observed for paclitaxel); cited from earlier work.
In data set [7] the test system is HT29. Particulars: historical, read-out: IC50* (Historical IC50 observed for paclitaxel); cited from earlier work.
The test system of data set [8] is MDA-MB-231. To be noted: historical, read-out: IC50* (Historical IC50 observed for paclitaxel); cited from earlier work.
Data set [9] deals with HCC1806. The data set is described as follows: cells. To be noted: Homo sapiens, HCC1806, 72 h. From the text: (§1) Details of the initial cell plating procedure are described in Table 3.
(§2) Data Details for Tables 5 and 6. Inhibition %=(Max−Sample value)/(Max−Min)*100.
(§3) The IC50 curves were generated by 4 Parameter Logistic Model—Sigmoidal Dose-Response Model as follows: Y=Bottom+(Top−Bottom)/(1+10^((log EC50-X)*HillSlope)).

The subject of data set [10] is SNU-16. The experiment in a line: cells. To be noted: Homo sapiens, SNU-16, 72 h.
Description: as §1, §2, §3

For data set [11], the system named is MDA-MB-231. The data set is described as follows: cells. To be noted: Homo sapiens, MDA-MB-231, 72 h.
Description: as §1, §2, §3

Data set [12] has as its system PC-3. The experiment in a line: cells. To be noted: Homo sapiens, PC-3, 72 h.
Description: as §1, §2, §3

Data set [13] concerns HT29. The data set is described as follows: cells. To be noted: Homo sapiens, HT-29, 72 h.
Description: as §1, §2, §3

Data set [14] concerns EBC-1. The experiment in a line: cells. To be noted: Homo sapiens, EBC-1, 72 h.
Description: as §1, §2, §3

Data set [15] relates to MOLP-8. The data set is described as follows: cells. To be noted: Homo sapiens, MOLP-8, 72 h.
Description: as §1, §2, §3

In data set [16] the test system is NCI-H1975. The experiment in a line: cells. Particulars: Homo sapiens, NCI-H1975, 72 h.
Description: as §1, §2, §3

In data set [17] the test system is NCI-H292. The data set is described as follows: cells. Particulars: Homo sapiens, NCI-H292, 72 h.
Description: as §1, §2, §3

The subject of data set [18] is HCT15. The experiment in a line: cells. Particulars: Homo sapiens, HCT-15, 72 h.
Description: as §1, §2, §3

Data set [19] deals with HT1080. The experiment in a line: cells. To be noted: Homo sapiens, HT-1080, 72 h.
Description: as §1, §2, §3

Data set [20] relates to HCC1806. To be noted: historical, read-out: IC50* (Historical IC50 observed for paclitaxel); cited from earlier work.
For the next data set, the system named is 11 tumor cell lines. The experiment in a line: 11 cancer cell line panel cytotoxicity, statements on the whole panel.
Description: as §1, §2, §3

In data set [21] the test system is HCT15. To be noted: historical, read-out: IC50* (Historical IC50 observed for paclitaxel); cited from earlier work.
The test system of data set [22] is SNU-16. Particulars: historical, read-out: IC50* (Historical IC50 observed for paclitaxel); cited from earlier work.

Each structure is given as a SMILES string. Like-named read-outs stand apart in the source and are kept apart here.

Consider `CC(=O)O[C@H]1C(=O)[C@@]2(C)[C@H]([C@H](OC(=O)c3ccccc3)[C@]3(O)C[C@H](OC(=O)[C@H](O)[C@@H](NC(=O)c4ccccc4)c4ccccc4)C(C)=C1C3(C)C)[C@]1(OC(C)=O)CO[C@@H]1C[C@@H]2O` [Paclitaxel], for which the 50% inhibitory concentration (IC50) in the data set on NCI-H292 [1] was 2 nM; in the data set with PC-3 [2] it was 12 nM; with EBC-1 [3], 4 nM; in the data set with HT1080 [4], 1 nM; in the data set on NCI-H1975 [5], 5 nM; in the data set with MOLP-8 [6] it was 4 nM. In addition, the IC50 in the data set on HT29 [7] is 2 nM; in the data set with MDA-MB-231 [8], 9 nM; in the data set on HCC1806 [9], 2.7 nM; in the data set on SNU-16 [10] it was 2.5 nM; with MDA-MB-231 [11], 4.8 nM; in the data set on PC-3 [12], 9.2 nM. The IC50 with HT29 [13] amounted to 4.1 nM; in the data set with EBC-1 [14], 4.1 nM; in the data set on MOLP-8 [15], 6.9 nM; with NCI-H1975 [16] it was 7.2 nM; in the data set with NCI-H292 [17] it was 2.9 nM; in the data set on HCT15 [18], 112 nM. In addition, the IC50 is 6.6 nM with HT1080 [19], 2 nM in the data set on HCC1806 [20], 128 nM with HCT15 [21] and 2 nM in the data set with SNU-16 [22]. The “cytotoxic activity over the cell line panel (in words)” value with 11 tumor cell lines is listed as “worked well on all the tested cell lines”.

One may read the IC50 as the concentration at which inhibition is half-maximal.
